US20240189294A1, “METHOD FOR REGULATING SEBACEOUS GLAND” (BUDDHIST TZU CHI MEDICAL FOUNDATION, priority 2021, published 2024)
Entries after “also recorded” stand apart in the source; their conditions may differ.

How the values were obtained:
[1] = test system: hair follicles; test: Topical application of CK1 inhibitors on shaved back skin of wild-type mice: hair growth phenotype and H&E staining (hair cycle phase); type: in vivo, C57BL/6J mice; settings: topical 0.04 mg every other day, total 0.12 mg per 1 cm^2, mice 8 weeks old; for hair growth on the back skin (phenotype): three times, N=3, FIG. 5B; for hair cycle phase, H&E staining of back skin: FIG. 5C
Protocol: K14-Cr-ERT2-CK1α^fl/fl mice, Mc1r^549del mice and Mc1r^549del mice with CK1α ablation in keratinocytes (CK1α^−/−Mc1r^549del) were collaboratively generated in National Laboratory Animal Center (NLAC) in Tainan, Taiwan, and wild type C57BL/6J mice were also purchased from NLAC. Experiments and animal caring were performed in the Laboratory Animal Center, Tzu Chi University, Hualien, Taiwan, with the approval of Animal Care Committee in accordance with legal and ethical standards. Both male and female mice were used. The hair cycle in wild C57BL/6J mice is related to the age; weeks 4 to 6 are an anagen phase, weeks 6 to 7 are a catagen phase, and weeks 7 to 12 are a telogen phase.
A51 is a gift from Dr. Yinon Ben-Nerian's lab (which was published in Cell, Volume 175, Issue 1, 20 Sep. 2018, pages 171-185). For topical application onto mouse skin, 1 mg of CKI was dissolved in 6 μL dimethyl sulfoxide (DMSO) and mixed with 54 μL of vehicle which contained 60% of white wax and 40% of paraffin oil. The final working concentration is 0.1 mg/cm^2.
D4476 was purchased from Sigma Aldrich (#D1944). For topical application onto mouse skin, 4 mg of CKI was dissolved in 1 mL DMSO as the stock. 10 μL stock was mixed with 40 μL of vehicle which contained 60% of white wax and 40% of paraffin oil. The final working concentration is 0.04 mg/cm^2.
IC261 was purchased from Sigma Aldrich (#40090). For topical application onto mouse skin, 4 mg of CKI was dissolved in 1 mL DMSO as the stock. 10 μL stock was mixed with 40 μL of vehicle which contained 60% of white wax and 40% of paraffin oil. The final working concentration is 0.04 mg/cm^2.
(§1) Mice at 8 weeks old were shaved to remove hair on back skin and cleaned with 75% ethanol. Topical CKIs were applied on the back skin 3 times in one week, and the tissue was harvested on day 7, day 14 and some on day 28 after application of CKIs. The tissue was analyzed by the methods described below.
(§2) Skin samples were harvested at indicated timings for tissue analysis. Paraffin-embedded specimens were cut into 5-μm sections. After deparaffinization (with tissue slides being soaked in xylene three times, each time for 5 min) and rehydration (with slides being incubated in the following graded series of ethanol: 100%, 100%, 95%, 90% and 70%, 5 min each), the slides were rinsed with distilled water for 5 min.
For histopathology by H&E staining, skin tissues were fixed overnight in 10% neutral buffered formalin at 4° C. and then transferred to 70% ethanol before being processed and embedded in paraffin. Paraffin sections were then stained with H&E.

[2] = test system: β-catenin; test: Immunohistochemical staining of β-catenin in back skin after topical CK1 inhibitor; type: in vivo, C57BL/6J mice; settings: topical 0.04 mg every other day, total 0.12 mg per 1 cm^2, mice 8 weeks old; FIG. 5D
Protocol: as §1, §2
Paraffin sections were incubated in a humidity chamber for 15 min at 60° C. Sections were deparaffinized in two changes of xylene for 5 min each and hydrated in two changes of 100% ethanol for 5 min each, then in 95% and 80% ethanol for 5 min each, and finally rinsed in distilled water. Antigen retrieval was enhanced by microwaving the slides in a citrate buffer (DAKO; pH 6.0) for 20 min. Endogenous peroxidase activity was quenched with 3% hydrogen peroxide in methanol. After blocking, sections were incubated overnight at 4° C. with β-catenin antibody (1/100; BD Bioscience). Secondary antibodies used were horseradish peroxidase (HRP)-polymer anti-mouse antibodies (Nichirei). […]

[3] = test system: hair follicle pigmentation; test: Fontana-Masson staining of hair follicle pigmentation after topical CK1 inhibitor; type: in vivo, C57BL/6J mice; settings: topical 0.04 mg every other day, total 0.12 mg per 1 cm^2, mice 8 weeks old (telogen); FIG. 5E
Protocol: as §1, §2
Fontana-Masson staining and H&E staining were performed by using the kit from ScyTek Laboratories, Inc. according to the manufacturer's instructions.
Briefly, for Fontana-Masson staining, a freshly mixed ammoniacal silver solution was placed in a 58° C. to 60° C. water bath and allowed to equilibrate. The slides were incubated in a warmed ammoniacal silver solution for 30 to 60 min or until the tissue sections became yellow/brown in color, and were then rinsed with distilled water for 3 to 5 seconds (s). The slides were incubated in a gold chloride solution (0.2%) for 30 s and were then rinsed with distilled water for 3 to 5 s. […]

[4] = test system: SZ95 cells (human sebocyte cell line); test: WST-1 assay in SZ95 cells; type: cell-based; settings: 1.5×10^4 cells/well, treated for 24 hr, FIG. 8B
Protocol: SZ95 cells (human sebocyte cell line) were maintained in Sebomed basal Medium (Sigma) supplemented with 10% FBS and 5 ng/mL epidermal growth factor under standard cell culture conditions of 37° C. and 5% CO2.
WST-1 assay. Seeding cells with density 1.5×10^4 cells/well in 96-well plate, incubate overnight. Remove medium and add 100 μL fresh medium contain various amount of IC261 (1, 50, 100, 200, 500, 1000 nM) in each well, incubate for 24 hr. Add 10 μL/well WST-1, incubate for 4 hr. Measure the absorbance of OD 450 nm and OD 655 nm by ELISA reader.

[5] = test system: PPARγ; test: Western blot of PPARγ in SZ95 cells; type: cell-based, human; settings: IC261 at different concentrations vs DMSO, FIG. 8C
Protocol: (§3) For experiments involving tissues, the tissues were homogenized and lysed in 1× tissue protein extraction reagent (Thermo Fisher) containing protease inhibitor (Millipore) and kept on ice; for experiments involving cells, cell pellet was collected and lysed in 1×radioimmunoprecipitation assay (RIPA) lysis buffer containing protease inhibitor (Millipore) and kept on ice. The total protein concentration was determined using Protein Assay Dye Reagent Concentrate (Bio-Rad) following manufacturer's instruction with a microplate reader. Sample was diluted in SDS-PAGE Sample Buffer (Bio-Rad) and heated at 95° C. for 5 minutes. The protein sample was then resolved on SDS-PAGE gels (TGX FastCast acrylamide solutions, Bio-Rad) and transferred onto poly(vinylidene fluoride) (PVDF) membranes (Millipore). 5% BSA was used, and then the membranes were incubated with primary antibodies overnight at 4° C. The membranes were then washed by Tris-buffered saline with Tween 20 (TBST) and incubated with secondary antibodies for 1 hour at room temperature. The signal was detected using iBright FL1000 Imaging System from Thermo Fisher Scientific.
(§4) The antibodies used in immunohistochemistry (IHC) and Western blotting (WB) in this disclosure were listed in Table 1 below, where manufacturers, catalogue number and the dilution ratio used were provided. […]

[6] = test system: c-Myc; test: Western blot of c-Myc in SZ95 cells; type: cell-based, human; settings: IC261 at different concentrations vs DMSO, FIG. 8C
Protocol: as §3, §4

[7] = test system: LC3B; test: Western blot of LC3B (autophagy marker) in SZ95 cells; type: cell-based, human; settings: FIG. 8D
Protocol: as §3, §4

Structure (SMILES) | hair growth on the back skin (phenotype) [1] | hair cycle phase, H&E staining of back skin [1] | expression of β-catenin, immunohistochemical staining [2] | hair follicle pigmentation, Fontana-Masson staining [3] | IC50 [4] | PPARγ expression (biomarker for adipogenesis) [5] | c-Myc expression (biomarker for undifferentiated sebocytes) [6] | LC3B expression (marker for autophagy) [7]
NC(=O)c1ccc(-c2nc(-c3ccc4c(c3)OCCO4)c(-c3ccccn3)[nH]2)cc1 [D4476] | significantly induced hair growth | induces an anagen phase of the hair cycle | increased the expression of β-catenin in the matrix of hair follicle | induce hair follicle growth and pigmented hair formation; also recorded: Heavily pigmented hair follicles and shafts |  |  |  | 
COc1cc(OC)c(C=C2C(O)=Nc3ccccc32)c(OC)c1 [IC261] | significantly induced hair growth | induces an anagen phase of the hair cycle | increased the expression of β-catenin in the matrix of hair follicle | induce hair follicle growth and pigmented hair formation; also recorded: Heavily pigmented hair follicles and shafts | ~476 nM | decreased | increased | increase with a dose dependent manner
